How the values were obtained:
[1] = tested on: human retinal endothelial cells (HRECs); test: Intracellular ROS levels in endothelial cells under HGM conditions; format: cell-based; conditions: 30 mM glucose 3 days then 5.5 mM 3 days; 1 nM K9-C-peptide or K8 polypeptide, 0.5 µM Trolox, 50 µM cystamine, 1 nM human C-peptide; CellROX green and H2DCFDA, n = 4
Protocol: (§1) HRECs were purchased from the Applied Cell Biology Research Institute (Cell Systems, Kirkland, WA) and grown on 2% gelatin-coated plates in M199 medium supplemented with 20% FBS, 3 ng/mL basic fibroblast growth factor, 100 U/mL penicillin, and […] streptomycin in a humidified 5% CO2 incubator. Cells were authenticated by short tandem repeat profiling, and subconfluent cells after 7–9 passages were used in experiments. For the experiments, endothelial cells were incubated for 12 h in a low-serum medium supplemented with 2% fetal bovine serum, 0.1 ng/mL basic fibroblast growth factor, and antibiotics. The cells were then treated with 5.5 mM D-glucose for 6 days (normal glucose), 30 mM glucose for 6 days (high glucose), or 30 mM glucose for 3 days followed by 5.5 mM glucose for 3 days (HGM).
Intracellular ROS levels were measured in HRECs using CellROX™ green reagent and 2′,7′-dichlorodihydrofluorescein diacetate (Thermo Fisher Scientific, Waltham, MA, USA) as previously described. Labeled cells on coverslips were mounted in a perfusion chamber and analyzed by confocal microscopy (K1-Fluo). ROS levels were determined at the single-cell level for 30 randomly selected cells in three microscopic fields per experiment (n = 4).

TGase = test: In situ TGase activity in endothelial cells under HGM conditions; format: cell-based; conditions: 30 mM glucose 3 days then 5.5 mM 3 days, 1 nM K9-C-peptide or K8 polypeptide, 0.5 µM Trolox, 50 µM cystamine, 1 nM human C-peptide, confocal, n = 4
Protocol: as §1
In situ TGase transamidating activity was measured by confocal microscopic assay as previously described. Briefly, HRECs were treated with 1 mmol/L 5-(biotinamido)pentylamine for 1 h and fixed with 3.7% formaldehyde for 30 min. The cells were then permeabilized with 0.2% Triton X-100 in PBS for 30 min and stained with FITC-conjugated streptavidin (1:200; MilliporeSigma, Burlington, MA, USA) for 1 h. The fluorescence intensities of single stained cells were determined by confocal microscopy (K1-Fluo) for 30 randomly selected cells in three microscopic fields per experiment (n = 4).

[2] = cited from earlier work
Protocol: However, C-peptide is limited in clinical applications by its short circulating half-life (approximately 30 min) and costly chemical synthesis. Recently, we prepared K9-C-peptide, a recombinant human C-peptide conjugated to ELP, to facilitate long-term systemic delivery of C-peptide. ELPs, derived from human elasti ...

[3] = tested on: type 1 and type 2 diabetic mice; conditions: cited from earlier work
Source text: The coincidence of diabetic complications, including DR, DPN, and DKD, has been reported in a number of clinical studies. Among the potential microvascular complications of diabetes, the coincidence of DR and DKD was reported to be high in epidemiological studies of both type 1 and type 2 diabetes. Co-occurrence of microvascular complications has also been observed in diabetic animal models including diabetic mice and rats. Moreover, increased mortality was reported in patients with both DR and systemic vascular diseases, including DKD [[ ...

[4] = Human C-peptide level in mouse serum (ELISA); format: in vivo; conditions: HGM mice (STZ diabetic, insulin by osmotic pump 4 weeks), 4 weeks after s.c. K9-C-peptide 100 mg/kg or K8 polypeptide 83 mg/kg, injected twice, mean ± SD, n = 6
Protocol: (§2) One day after implantation of the osmotic pumps, human C-peptide was systemically supplemented by subcutaneous implantation of K9-C-peptide depots as previously described. […] The K9-C-peptide and K8 polypeptide were prepared by inverse transition cycling as previously described. Four weeks after the subcutaneous injections, sera and retinal, lung, and kidney tissues were obtained from the mice and analyzed. All animal experiments conformed to the Guide for the Care and Use of Laboratory Animals (National Institutes of Health; Bethesda, MD, USA) and were approved by the Institutional Animal Care and Use Ethics Committee of Kangwon National University (KW-201204–3).

[5] = tested on: insulin-supplemented diabetic (HGM) mice; test: Body weight, blood glucose, water and food consumption of HGM mice; format: in vivo, mouse; conditions: 4 weeks of treatment, insulin vs diabetic, K9-C-peptide/K8 on top of insulin, n = 6
Protocol: Six-week-old male C57BL/6 mice were obtained from DBL (EumSeong, Korea). […] Soo-Yul Kim (National Cancer Center, Goyang, Republic of Korea). Mice were maintained under pathogen-free conditions in a temperature-controlled room with a 12-h light/dark cycle. Diabetic mice were generated by single daily intraperitoneal injections of streptozotocin (50 mg/kg body weight; MilliporeSigma, Burlington, MA, USA) freshly prepared in 100 mM citrate buffer (pH 4.5) for 5 consecutive days, as previously described. The control group mice were injected with an equal volume of the citrate buffer. Mice with fasting blood glucose concentrations ≥ 19 mmol/L, polyuria, and glucosuria were considered diabetic. Mouse blood glucose levels and body weights were monitored weekly. […] One day after implantation of the osmotic pumps, human C-peptide was systemically supplemented by subcutaneous implantation of K9-C-peptide depots as previously described. […] The K9-C-peptide and K8 polypeptide were prepared by inverse transition cycling as previously described. Four weeks after the subcutaneous injections, sera and retinal, lung, and kidney tissues were obtained from the mice and analyzed. All animal experiments conformed to the Guide for the Care and Use of Laboratory Animals (National Institutes of Health; Bethesda, MD, USA) and were approved by the Institutional Animal Care and Use Ethics Committee of Kangwon National University (KW-201204–3).

[6] = Human insulin level in mouse serum (ELISA); format: in vivo; conditions: HGM mice, insulin by osmotic pump 58.4 pmol/min/kg for 4 weeks, alone or with K8 polypeptide or K9-C-peptide, 10 weeks after streptozotocin, mean ± SD, n = 6
Protocol: as §2

In the case of `Cc1c(C)c2c(c(C)c1O)CCC(C)(C(=O)O)O2` (stereo not drawn) [Trolox], the “HGM-induced persistent ROS generation in HRECs” value [1] is reported as “inhibited” and the “HGM-induced persistent TGase activation in HRECs” value (TGase) is reported as “inhibited”.
In the case of `NCCSSCCN` [cystamine], the “HGM-induced persistent ROS generation in HRECs” value [1] is reported as “inhibited” and the “HGM-induced persistent TGase activation in HRECs” value (TGase) is reported as “inhibited”.
In the case of `CC(C)C[C@H](NC(=O)[C@H](C)NC(=O)[C@H](CC(C)C)NC(=O)[C@@H]1CCCN1C(=O)[C@H](CCC(N)=O)NC(=O)[C@H](CC(C)C)NC(=O)[C@H](CO)NC(=O)CNC(=O)[C@H](C)NC(=O)CNC(=O)[C@@H]1CCCN1C(=O)CNC(=O)CNC(=O)CNC(=O)[C@H](CC(C)C)NC(=O)[C@H](CCC(=O)O)NC(=O)[C@@H](NC(=O)[C@H](CCC(N)=O)NC(=O)CNC(=O)[C@@H](NC(=O)[C@H](CCC(N)=O)NC(=O)[C@H](CC(C)C)NC(=O)[C@H](CC(=O)O)NC(=O)[C@H](CCC(=O)O)NC(=O)[C@H](C)NC(=O)[C@@H](N)CCC(=O)O)C(C)C)C(C)C)C(=O)N[C@@H](CCC(=O)O)C(=O)NCC(=O)N[C@@H](CO)C(=O)N[C@@H](CC(C)C)C(=O)N[C@@H](CCC(N)=O)C(=O)O` [human C-peptide], the Circulating half-life [2] is given as “approximately 30 min”.
For `CN(C)c1ccc(O)c2c1C[C@H]1C[C@H]3[C@H](N(C)C)C(O)=C(C(N)=O)C(=O)[C@@]3(O)C(O)=C1C2=O` [minocycline], the “Effect on DR and DKD” value ([3]; DR in type 1 and DKD in type 2 diabetic mice, respectively) is given as “partially ameliorated” and the “Effect on DPN” value ([3]; type 1 and type 2 diabetic mice (either animal model)) is given as “failed to improve”.
With “insulin: human recombinant insulin delivered by subcutaneous osmotic pump (HGM group)” the “Serum C-peptide” value [4] was “not detectable”, the “Effect on blood glucose level (hyperglycemia)” value [5] was “normalized” and the “Effect on body weight” value [5] was “normalized”. The “Effect on water and food consumption” value [5] was “normalized” and the Serum human insulin [6] was “in the physiological range”.

Source: publication PMC9926630, “Simultaneous attenuation of hyperglycemic memory-induced retinal, pulmonary, and glomerular dysfunctions by proinsulin C-peptide in diabetes” (BMC Medicine, 2023)
